In patent publication US9539259B2, “Compounds and methods of use thereof for treating neurodegenerative disorders” (THE JOHNS HOPKINS UNIVERSITY, priority 2012, dated 2017):
Like-named read-outs stand apart in the source and are kept apart here.

Tests used:
primary RGCs = assay: Survival of immunopanned primary RGCs in culture; conditions: for RGC survival / neuroprotective activity in culture: immunopanned RGCs, increasing doses, 72 hours in culture; for neuroprotective activity, RGC survival by CellTiter-Glo luminescence: murine purified RGCs, neurotrophin-depleted media, 72 hours, sunitinib as positive control
Procedure: All animal use was in accordance with ARVO Statement for the Use of Animals, and all the experimental procedures were performed in compliance with animal protocols approved by the IACUC at Johns Hopkins University. Retinas were isolated from postnatal 0-5 day mice and dissociated with papain. Microglia was immunodepleted with anti-CD11b conjugated Dynabeads. The suspension of retinal cells were immunopanned on plates pre-conjugated with anti-Thy1.2 antibody (Serotec, Raleigh, N.C.; MCA028) and goat anti-mouse IgM (Jackson Immunoresearch) at room temperature (RT). After washing, RGCs were released from the plate by a cell lifter, counted, and seeded at a density of 10,000 per well in 96-well plates in the media composed of Neurobasal, B27, N2 supplement, L-glutamine, and penicillin/streptomycin. After a 72 hour culture at 37° C., RGCs were stained with calcein AM, ethidium homodimer, and Hoechst 33342. Images were taken from portions of each well with Cellomics Kinetscan or Cellomics ArrayScan VTI HCS Readers (Thermo Fisher), and cell survival was quantified and calculated with the algorithms in Cellomics Neuroprofiling package. As indicated, RGC viability was alternatively measured by CellTiter-Glo luminescence (Promega, Fitchburg, Wis.).
For siRNA-based screening, the siRNAs from the Sigma Mission Mouse Kinome library were complexed with NeuroMag (Oz Biosciences, Marseille, France) at a final concentration of 20 nM. RGCs were then reverse transfected on a stationary magnet and assayed for survival 72 hours later using CellTiter-Glo (Promega). […] Confirmatory siRNAs were obtained from both Dharmacon (Lafayette, Colo.) and Ambion (Carlsbad, Calif.). Adenovirus expressing wildtype or kinase-dead DLK (Robitaille et al., 2004) was added to RGCs at a multiplicity of infection of 100-1000. For small molecule-based screening, serially diluted compounds in DMSO were transferred to 1536 well assay plates by a 23 nL pintool array (Kalypsys, San Diego, Calif.), with a final concentration of 0.057% DMSO for each respective compound concentration. RGCs were cultured for 48 h, and cell viability was analyzed on a plate reader (ViewLux, Perkin Elmer, Waltham, Mass.) using the bioluminescent CellTiterGlo (Promega, Fitchburg, Wis.) assay. Concentration response curves were created using CurveFit (NIH NCATS). The screened libraries include the modified Tocriscreen (1395 compounds) collection, FDA-approved drugs (2814 compounds), LOPAC (1208 compounds) and PTL2/PTL3 (based on pteridin, pyrimidine and quinazoline scaffolds; 2319 compounds).
In order to identify novel neuroprotective agents, a high-content, high-throughput, phenotypic screen was developed using primary RGCs. RGCs were immunopanned from perinatal mice using an antibody against the RGC surface antigen Thy1 (Barres et al., 1988), arrayed into microtiter (96- to 1536-well) plates, and cell survival in the presence of various bioactive small molecules was assayed 72 hours later.

DLK = biological target: T1, DLK (Homo sapiens, UniProt Q12852); conditions: published kinase inhibitor profiles; cited from earlier work
T1 sequence (Q12852 1-859): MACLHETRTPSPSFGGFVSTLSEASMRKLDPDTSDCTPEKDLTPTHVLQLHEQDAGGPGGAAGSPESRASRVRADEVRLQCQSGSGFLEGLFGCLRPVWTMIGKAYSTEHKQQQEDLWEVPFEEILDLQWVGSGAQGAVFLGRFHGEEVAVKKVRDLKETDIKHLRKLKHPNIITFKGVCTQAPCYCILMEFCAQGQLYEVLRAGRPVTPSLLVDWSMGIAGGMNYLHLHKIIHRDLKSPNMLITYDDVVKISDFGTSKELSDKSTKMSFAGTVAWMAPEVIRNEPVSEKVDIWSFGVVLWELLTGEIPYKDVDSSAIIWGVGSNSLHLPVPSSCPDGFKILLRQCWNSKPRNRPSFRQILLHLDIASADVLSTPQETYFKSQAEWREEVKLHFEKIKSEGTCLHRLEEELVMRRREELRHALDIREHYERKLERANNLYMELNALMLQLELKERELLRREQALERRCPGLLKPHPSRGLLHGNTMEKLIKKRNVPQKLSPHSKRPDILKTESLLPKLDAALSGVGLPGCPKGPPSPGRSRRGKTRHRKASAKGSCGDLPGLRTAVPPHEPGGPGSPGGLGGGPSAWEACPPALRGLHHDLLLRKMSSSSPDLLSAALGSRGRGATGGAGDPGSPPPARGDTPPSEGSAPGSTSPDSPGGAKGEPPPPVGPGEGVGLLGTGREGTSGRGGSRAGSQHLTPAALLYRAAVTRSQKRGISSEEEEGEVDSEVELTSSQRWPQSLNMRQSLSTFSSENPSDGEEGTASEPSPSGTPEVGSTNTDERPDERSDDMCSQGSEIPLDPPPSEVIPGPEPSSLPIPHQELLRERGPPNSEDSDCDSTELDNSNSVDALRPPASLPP

RGCs = assay: Rat optic nerve transection, RGC survival; assay type: in vivo, Wistar rats
optic nerve axons = assay: Rat laser-induced ocular hypertension (glaucoma model), optic nerve axon counts; conditions: for reduction of optic nerve axon loss: intravitreal drug-eluting PLGA microspheres, pretreatment, at one month
Procedure: 6-week old male Wistar rats were anesthetized with ketamine/xylazine. A partial periotomy was made to expose the sclera. The injection site was approximately 1 mm posterior to the ora serrata, and the injection glass pipet was angled towards the optic disc in order to avoid lens injury. 5 μL (10 μg) of PLGA microspheres were injected with a glass pipet and Hamilton syringe.
Intraocular pressure (TOP) was unilaterally elevated by laser treatment of the trabecular meshwork as previously described (Levkovitch-Verbin, H. et al., 2002). Briefly, 6-week old Wistar male rats were anesthetized with ketamine/xylazine. On two consecutive weeks, 40-50 532 nm diode laser spots were applied to the prelimbal region (50 μm diameter, 600 mW power and 0.6 seconds duration). Under anesthesia, the IOP of laser-treated and fellow eyes was measured with TonoLab one and three days after laser treatment. Four weeks following laser treatment, rats were perfused with 4% paraformaldehyde in phosphate buffer. Optic nerves were isolated, postfixed with 1% osmium tetroxide, embedded in epoxy resin and stained with 1% toluidine blue. Images from 10 random and nonoverlapping fields were taken with 100× oil phase contrast objective. The area of entire optic nerve cross-sections were imaged with 10× magnification, and used with axon counts from the 10 field to derive axon counts per nerve. The laser treatment and acquisition of optic nerve images were performed in a masked fashion.
Sunitinib, or its vehicle control, were packaged in poly(lactic-co-glycolic acid) (PLGA)-based, slow-eluting microspheres (Edwards, 1997) and injected intravitreally into Wistar rats.

[1] = test system: DLK siRNA-transfected RGCs; assay: Survival of RGCs transfected with DLK or control siRNA in the presence of inhibitor; assay type: cell-based, mouse; conditions: 72 hours after transfection, increasing doses
Procedure: (§1) The shaded area indicates the toxic range for tozasertib; (B) Western blot of the DLK pathway members in RGCs 4 hours after immunopanning in the presence of 0, 0.03, 0.06, 0.125, 0.25, 0.5, 1 or 2 μM tozasertib; (C) survival of cultured RGCs 72 hours after transfection with DLK (dashed) or nontargeting siRNA (solid) in the presence of increasing doses of tozasertib; and (D) survival of cultured RGCs 48 hours after transduction with DLK expressing adenovirus in the presence of increasing doses of tozasertib. Error bars show standard deviation; and
(§2) Concentration response curves were created using CurveFit (NIH NCATS).

JNK1/2/3 = conditions: published kinase inhibitor profiling; cited from earlier work
[2] = test system: DLK signaling (phosphorylation of MKK7 and JNK); assay: Western blot of DLK pathway members in RGCs; assay type: cell-based, mouse; conditions: RGCs 4 hours after immunopanning, concentrations that increase RGC survival
Procedure: as §1
Western blots were performed according to the standard protocol. The following antibodies were from Cell Signaling Technology (Beverly, Mass.): Phospho-JNK, Thr183/Tyr185 (4671); JNK (9258); Phospho-MKK7 (4171), and MKK7 (4172). Monoclonal anti-alpha-tubulin antibody (T6074) was purchased from Sigma (St. Louis, Mo.), βIII tubulin (TUJ1) from Covance, goat polyclonal Brn3 from C-13, and rabbit anti-Cre from Novus. DLK rabbit polyclonal was provided by S. Hirai.

RGCs overexpressing DLK = assay: Survival of RGCs transduced with DLK-expressing adenovirus in the presence of inhibitor; assay type: cell-based, mouse
Procedure: as §1, §2

MKK4/7 = conditions: published kinase inhibitor profiling; cited from earlier work

O=C(c1ccc(/C=C/c2n[nH]c3ccccc23)cc1)N1CCNCC1 [KW-2449]
RGC survival / neuroprotective activity in culture (primary RGCs): promoted the survival of primary RGCs in culture | neuroprotective activity, RGC survival by CellTiter-Glo luminescence (primary RGCs): neuroprotective activity | binding to DLK (DLK): reported to bind DLK

CN(C)S(=O)(=O)c1ccc2c(c1)/C(=C/c1cc3c([nH]1)CCCC3)C(=O)N2 [SU6656]
RGC survival / neuroprotective activity in culture (primary RGCs): neuroprotective

COc1cc(N2CCC(N3CCN(C)CC3)CC2)ccc1Nc1ncc(Cl)c(Nc2ccccc2S(=O)(=O)C(C)C)n1 [TAE-684]
toxicity in RGC culture (primary RGCs): limited by toxicity at nanomolar doses | binding to DLK (DLK): reported to bind DLK

CNC(=O)c1ccccc1Sc1ccc2c(/C=C/c3ccccn3)n[nH]c2c1 [axitinib]
RGC survival / neuroprotective activity in culture (primary RGCs): promoted the survival of primary RGCs in culture | neuroprotective activity, RGC survival by CellTiter-Glo luminescence (primary RGCs): neuroprotective activity | binding to DLK (DLK): reported to bind DLK

COc1cc(Nc2c(C#N)cnc3cc(OCCCN4CCN(C)CC4)c(OC)cc23)c(Cl)cc1Cl [bosutinib]
RGC survival / neuroprotective activity in culture (primary RGCs): promoted the survival of primary RGCs in culture | neuroprotective activity, RGC survival by CellTiter-Glo luminescence (primary RGCs): neuroprotective activity | binding to DLK (DLK): reported to bind DLK

COc1cc2nccc(Oc3ccc(NC(=O)C4(C(=O)Nc5ccc(F)cc5)CC4)cc3)c2cc1OC [cabozantinib]
neuroprotective activity, RGC survival by CellTiter-Glo luminescence (primary RGCs): neuroprotective activity

C[C@@H](Oc1cc(-c2cnn(C3CCNCC3)c2)cnc1N)c1c(Cl)ccc(F)c1Cl [crizotinib]
RGC survival / neuroprotective activity in culture (primary RGCs): promoted the survival of primary RGCs in culture | neuroprotective activity, RGC survival by CellTiter-Glo luminescence (primary RGCs): neuroprotective activity | binding to DLK (DLK): reported to bind DLK

Cc1nc(Nc2ncc(C(=O)Nc3c(C)cccc3Cl)s2)cc(N2CCN(CCO)CC2)n1 [dasatinib]
neuroprotective activity, RGC survival by CellTiter-Glo luminescence (primary RGCs): neuroprotective activity

COc1cc2c(Oc3ccc(NC(=O)C4(C(=O)Nc5ccc(F)cc5)CC4)cc3F)ccnc2cc1OCCCN1CCOCC1 [foretinib]
RGC survival / neuroprotective activity in culture (primary RGCs): promoted the survival of primary RGCs in culture | neuroprotective activity, RGC survival by CellTiter-Glo luminescence (primary RGCs): neuroprotective activity | binding to DLK (DLK): reported to bind DLK

Cc1ccc(NC(=O)c2ccc(CN3CCN(C)CC3)cc2)cc1Nc1nccc(-c2cccnc2)n1 [imatinib]
RGC survival / neuroprotective activity in culture (primary RGCs): lack neuroprotective activity

C[C@]12O[C@H](C[C@]1(O)CO)n1c3ccccc3c3c4c(c5c6ccccc6n2c5c31)CNC4=O [lestautinib, lestaurtinib]
RGC survival / neuroprotective activity in culture (primary RGCs): promoted the survival of primary RGCs in culture

CCOc1cc2ncc(C#N)c(Nc3ccc(OCc4ccccn4)c(Cl)c3)c2cc1NC(=O)/C=C/CN(C)C [neratinib]
toxicity in RGC culture (primary RGCs): limited by toxicity at nanomolar doses | binding to DLK (DLK): reported to bind DLK

CNC(=O)c1cc(Oc2ccc(NC(=O)Nc3ccc(Cl)c(C(F)(F)F)c3)cc2)ccn1 [sorafenib]
RGC survival / neuroprotective activity in culture (primary RGCs): lack neuroprotective activity

CCN(CC)CCNC(=O)c1c(C)[nH]c(/C=C2\C(=O)Nc3ccc(F)cc32)c1C [sunitinib]
increase in surviving RGCs compared to control animals (RGCs; intravitreal PLGA microspheres 7 days before transection, two weeks post-transection): 3-4 fold | toxicity in RGC culture (primary RGCs; primary RGCs in culture): cytotoxicity at high concentrations | reduction of optic nerve axon loss (optic nerve axons): 40%

Cc1cc(Nc2cc(N3CCN(C)CC3)nc(Sc3ccc(NC(=O)C4CC4)cc3)n2)[nH]n1 [tozasertib]
effect on survival of DLK siRNA-transfected RGCs [1]: left-shift of the tozasertib-survival dose-response curve | surviving RGCs (RGCs; intravitreal PLGA microspheres 7 days before transection, two weeks after transection, vehicle 12.0%): 32.3% | protection of RGCs in optic nerve transection model (RGCs; intravitreal slow release formulation): protected RGCs | affinity for JNK (JNK1/2/3): does not have significant affinity | phosphorylation of targets downstream of DLK, including MKK7 and JNK [2]: decrease in the phosphorylation of targets downstream of DLK | RGC survival / neuroprotective activity in culture (primary RGCs): promoted the survival of primary RGCs in culture | RGC survival / neuroprotective activity in culture (primary RGCs; listed as Tozasertib): significant neuroprotective activity | neuroprotection in glaucoma model (optic nerve axons; intravitreal PLGA microspheres / slow release formulation): protected RGCs | reduction of optic nerve axon loss (optic nerve axons): 39% | binding to DLK (DLK): reported to bind DLK | effect on toxicity / survival with adenoviral-overexpressed DLK (RGCs overexpressing DLK): right-shift of the tozasertib-survival dose-response curve | affinity for MKK4/7 (MKK4/7): does not have significant affinity

Clc1ccc(Nc2nnc(Cc3ccncc3)c3ccccc23)cc1 [vatalanib]
RGC survival / neuroprotective activity in culture (primary RGCs): lack neuroprotective activity
